pIC50: −log10 of the molar value.
Columns and labels:
αvβ1 = αvβ1 (Homo sapiens, UniProt P05556+P06756); test: Solid Phase Integrin αvβ1 Assay; type: binding
In short: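 Compound competes for αvβ1 binding to immobilized TGFb1-LAP (1 µg/mL coat) in Mn2+ (1 mM MnCl2), 2% BSA binding buffer over 90 min at room temperature, integrin added at 0.2 µg/mL. Read-out: streptavidin-HRP/TMB; IC50 from Levenberg-Marquardt four-parameter fit.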

αvβ6 = αvβ6 (Homo sapiens, UniProt P06756+P18564); test: Solid Phase Integrin αvβ6 Assay; type: binding
Chain of αvβ6 (P06756 31-992 limits assumed): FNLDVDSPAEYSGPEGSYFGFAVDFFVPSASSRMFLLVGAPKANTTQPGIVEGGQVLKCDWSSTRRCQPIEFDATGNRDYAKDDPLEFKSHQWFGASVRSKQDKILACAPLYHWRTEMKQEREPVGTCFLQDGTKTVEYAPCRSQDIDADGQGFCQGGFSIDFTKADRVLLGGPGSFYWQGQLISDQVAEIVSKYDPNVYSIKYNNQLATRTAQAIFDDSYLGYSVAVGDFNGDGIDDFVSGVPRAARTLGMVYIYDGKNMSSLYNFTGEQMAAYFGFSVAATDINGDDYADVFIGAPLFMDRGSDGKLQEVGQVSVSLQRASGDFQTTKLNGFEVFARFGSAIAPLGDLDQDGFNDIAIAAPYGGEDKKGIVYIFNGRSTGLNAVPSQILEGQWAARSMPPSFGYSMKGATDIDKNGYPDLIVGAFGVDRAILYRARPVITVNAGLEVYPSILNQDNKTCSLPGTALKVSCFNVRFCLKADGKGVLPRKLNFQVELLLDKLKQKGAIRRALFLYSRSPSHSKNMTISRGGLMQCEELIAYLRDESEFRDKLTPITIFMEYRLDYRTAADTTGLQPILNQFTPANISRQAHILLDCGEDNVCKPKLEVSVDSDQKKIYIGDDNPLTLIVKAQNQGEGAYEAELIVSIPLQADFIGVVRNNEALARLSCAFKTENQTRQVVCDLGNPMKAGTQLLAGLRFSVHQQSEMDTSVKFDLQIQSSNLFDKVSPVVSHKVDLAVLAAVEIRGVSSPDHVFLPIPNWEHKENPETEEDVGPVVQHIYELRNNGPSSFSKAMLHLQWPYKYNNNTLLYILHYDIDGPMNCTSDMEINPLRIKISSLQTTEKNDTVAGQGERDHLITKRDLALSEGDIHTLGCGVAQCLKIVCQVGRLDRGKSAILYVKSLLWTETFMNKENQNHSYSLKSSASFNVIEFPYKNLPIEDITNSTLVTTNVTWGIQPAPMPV
Chain of αvβ6 (P18564 22-707 limits assumed): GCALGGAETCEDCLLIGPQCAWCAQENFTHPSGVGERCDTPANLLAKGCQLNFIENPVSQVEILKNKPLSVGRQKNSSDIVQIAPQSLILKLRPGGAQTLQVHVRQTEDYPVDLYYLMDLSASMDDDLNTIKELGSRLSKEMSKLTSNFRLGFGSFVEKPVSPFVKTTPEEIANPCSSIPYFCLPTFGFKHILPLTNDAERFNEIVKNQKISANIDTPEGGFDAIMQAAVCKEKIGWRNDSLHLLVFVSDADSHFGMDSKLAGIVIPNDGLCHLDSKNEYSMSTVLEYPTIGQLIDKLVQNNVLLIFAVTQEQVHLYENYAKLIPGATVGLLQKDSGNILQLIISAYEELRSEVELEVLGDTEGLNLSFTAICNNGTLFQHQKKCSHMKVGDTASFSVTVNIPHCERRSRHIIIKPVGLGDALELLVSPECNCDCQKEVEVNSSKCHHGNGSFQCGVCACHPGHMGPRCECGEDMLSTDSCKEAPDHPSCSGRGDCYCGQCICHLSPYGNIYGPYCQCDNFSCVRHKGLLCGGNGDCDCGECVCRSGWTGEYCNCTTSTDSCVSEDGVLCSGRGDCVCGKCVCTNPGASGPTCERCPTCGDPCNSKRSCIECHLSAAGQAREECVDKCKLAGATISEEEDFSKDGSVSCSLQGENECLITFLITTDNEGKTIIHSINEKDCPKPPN
In short: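 Inhibition of αvβ6 binding to immobilized recombinant TGFb1-LAP (1 μg/mL coating), 1 h at room temperature with 1 mM MnCl2 in BSA/TBST buffer, integrin diluted to 0.2 μg/mL before addition. Streptavidin-HRP/TMB read-out; four-parameter logistic fitting gave IC50.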

Chain of αvβ1 (P06756 31-992 limits assumed): as the sequence (P06756 31-992 limits assumed) above
Chain of αvβ1 (P05556 21-728 limits assumed): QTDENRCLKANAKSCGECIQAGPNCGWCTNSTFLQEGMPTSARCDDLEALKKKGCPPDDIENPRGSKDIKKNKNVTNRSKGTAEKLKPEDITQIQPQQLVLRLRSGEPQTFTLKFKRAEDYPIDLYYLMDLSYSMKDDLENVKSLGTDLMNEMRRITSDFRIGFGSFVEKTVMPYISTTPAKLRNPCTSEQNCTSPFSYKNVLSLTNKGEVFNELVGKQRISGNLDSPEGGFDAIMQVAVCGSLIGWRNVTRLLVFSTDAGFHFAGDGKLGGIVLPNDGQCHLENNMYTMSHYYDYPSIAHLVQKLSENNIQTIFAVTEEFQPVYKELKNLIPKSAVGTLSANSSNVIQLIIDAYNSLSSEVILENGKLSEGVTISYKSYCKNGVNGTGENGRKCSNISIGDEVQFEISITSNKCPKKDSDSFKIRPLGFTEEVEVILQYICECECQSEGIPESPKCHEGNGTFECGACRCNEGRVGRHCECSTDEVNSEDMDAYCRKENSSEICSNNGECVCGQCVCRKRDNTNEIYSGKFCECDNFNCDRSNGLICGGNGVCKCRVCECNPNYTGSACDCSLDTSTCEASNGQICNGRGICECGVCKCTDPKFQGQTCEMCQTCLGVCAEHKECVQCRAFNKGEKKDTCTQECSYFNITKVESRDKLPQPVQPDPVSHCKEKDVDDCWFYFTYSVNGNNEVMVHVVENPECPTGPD

Row | Compound | pIC50 (αvβ1) | pIC50 (αvβ6)
1 | O=C(O)C[C@@H](NC(=O)[C@@H]1CCCN(CCCc2ccc3c(n2)NCCC3)C1)c1ccccc1C1CC1 [Compound 345] | < 6.00 | < 6.00
2 | O=C(O)C[C@H](O[C@@H]1CCCN(CCCc2ccc3c(n2)NCCC3)C1)c1ccccc1 [Compound 349] | < 6.00 | < 6.00
3 | O=C(O)[C@H](CO[C@@H]1CCCN(CCCc2ccc3c(n2)NCCC3)C1)c1ccccc1 [Compound 350] | < 6.00 | < 6.00
4 | O=C(O)C[C@@H](O[C@@H]1CCCN(CCCc2ccc3c(n2)NCCC3)C1)c1ccccc1 [Compound 351] | < 6.00 | < 6.00
5 | O=C(O)[C@@H](CO[C@@H]1CCCN(CCCc2ccc3c(n2)NCCC3)C1)c1ccccc1 [Compound 352] | < 6.00 | < 6.00
6 | O=C(O)C[C@H](CO[C@@H]1CCCN(CCc2ccc3c(n2)NCCC3)C1)c1ccccc1 [Compound 353] | < 6.00 | 6.00 to 7.00
7 | O=C(O)C[C@@H](CO[C@@H]1CCCN(CCc2ccc3c(n2)NCCC3)C1)c1ccccc1 [Compound 354] | < 6.00 | < 6.00
8 | O=C(O)C[C@@H](CO[C@@H]1CCCN(Cc2ccc3c(n2)NCCC3)C1)c1ccccc1 [Compound 355] | 6.00 to 7.00 | < 6.00
9 | O=C(O)C[C@H](CO[C@@H]1CCCN(Cc2ccc3c(n2)NCCC3)C1)c1ccccc1 [Compound 356] | 6.00 to 7.00 | < 6.00
10 | O=C(O)C[C@H](CO[C@@H]1CCCN(CCCCc2ccc3c(n2)NCCC3)C1)c1ccccc1 [Compound 357] | 6.00 to 7.00 | 6.00 to 7.00
11 | O=C(O)C[C@@H](NC(=O)[C@@H]1CCCN(CCCc2ccc3c(n2)NCCC3)C1)c1cnc2ccccc2n1 [Compound 374] | 6.00 to 7.00 | > 7.00
12 | C[C@H]1CCN(CCCc2ccc3c(n2)NCCC3)C[C@H]1C(=O)N[C@@H](CC(=O)O)c1ccccc1 [Compound 378] | < 6.00 | 6.00 to 7.00
13 | C[C@H]1C[C@H](C(=O)N[C@@H](CC(=O)O)c2ccccc2)CN(CCCc2ccc3c(n2)NCCC3)C1 [Compound 380] | 6.00 to 7.00 | > 7.00
14 | O=C(O)[C@@H](CO[C@@H]1CCCN(CCCc2ccc3c(n2)NCCC3)C1)NC(=O)C12CCC(CC1)CC2 [Compound 382] | < 6.00 | < 6.00
15 | O=C(O)[C@@H](CCO[C@@H]1CCCN(CCc2ccc3c(n2)NCCC3)C1)NC(=O)C12CCC(CC1)CC2 [Compound 383] | > 7.00 | 6.00 to 7.00
16 | O=C(O)[C@@H](CCO[C@@H]1CCCN(CCCCc2ccc3c(n2)NCCC3)C1)NC(=O)C12CCC(CC1)CC2 [Compound 384] | < 6.00 | < 6.00
17 | O=C(O)[C@H](CCO[C@@H]1CCCN(CCCCc2ccc3c(n2)NCCC3)C1)Nc1ncnc2ccccc12 [Compound 385] | < 6.00 | 6.00 to 7.00
18 | O=C(O)[C@H](CCO[C@@H]1CCCN(CCc2ccc3c(n2)NCCC3)C1)Nc1ncnc2ccccc12 [Compound 386] | < 6.00 | < 6.00
19 | O=C(O)[C@H](CCO[C@@H]1CCCN(Cc2ccc3c(n2)NCCC3)C1)Nc1ncnc2ccccc12 [Compound 387] | > 7.00 | 6.00 to 7.00

The next lines start with the values.

Row | pIC50 (αvβ1) | pIC50 (αvβ6) | Compound
20 | > 7.00 | > 7.00 | C[C@@H]1CC[C@H](C(=O)N[C@@H](CC(=O)O)c2ccccc2)CN1CCCc1ccc2c(n1)NCCC2 [Compound 346]
21 | > 7.00 | > 7.00 | O=C(O)C[C@@H](NC(=O)[C@@H]1CCCN(CCCc2ccc3c(n2)NCCC3)C1)c1cc(F)cc(C2CC2)c1 [Compound 347]
22 | > 7.00 | > 7.00 | Nc1nnc(C(=O)N[C@@H](CNC(=O)[C@@H]2CCCN(CCCc3ccc4c(n3)NCCC4)C2)C(=O)O)o1 [Compound 348]
23 | > 7.00 | < 6.00 | O=C(O)C[C@@H](CO[C@@H]1CCCN(CCCCc2ccc3c(n2)NCCC3)C1)c1ccccc1 [Compound 358]
24 | > 7.00 | > 7.00 | O=C(N[C@@H](CNC(=O)[C@@H]1CCCN(CCCc2ccc3c(n2)NCCC3)C1)C(=O)O)c1c(F)cc(N2CCOC[C@@H]2C(F)(F)F)cc1F [Compound 359]
25 | > 7.00 | > 7.00 | O=C(NC[C@H](Nc1ccc(-c2ccccc2)nc1)C(=O)O)[C@@H]1CCCN(CCCc2ccc3c(n2)NCCC3)C1 [Compound 360]
26 | > 7.00 | > 7.00 | O=C(NC[C@H](Nc1cncc(-c2ccccc2)c1)C(=O)O)[C@@H]1CCCN(CCCc2ccc3c(n2)NCCC3)C1 [Compound 361]
27 | > 7.00 | > 7.00 | O=C(N[C@@H](CNC(=O)[C@@H]1CCCN(CCCc2ccc3c(n2)NCCC3)C1)C(=O)O)c1c(Cl)cccc1Cl [Compound 362]
28 | > 7.00 | > 7.00 | O=C(N[C@@H](CNC(=O)[C@@H]1CCCN(CCCc2ccc3c(n2)NCCC3)C1)C(=O)O)c1cc(Cl)cc(Cl)c1 [Compound 363]
29 | > 7.00 | > 7.00 | O=C(N[C@@H](CNC(=O)[C@@H]1CCCN(CCCc2ccc3c(n2)NCCC3)C1)C(=O)O)c1cc(Cl)ccc1Cl [Compound 364]
30 | > 7.00 | > 7.00 | O=C(N[C@@H](CNC(=O)[C@@H]1CCCN(CCCc2ccc3c(n2)NCCC3)C1)C(=O)O)c1cccc(Cl)c1Cl [Compound 365]
31 | > 7.00 | > 7.00 | O=C(N[C@@H](CNC(=O)[C@@H]1CCCN(CCCc2ccc3c(n2)NCCC3)C1)C(=O)O)C1CCC(F)(F)CC1 [Compound 366]
32 | > 7.00 | > 7.00 | O=C(N[C@@H](CNC(=O)[C@@H]1CCCN(CCCc2ccc3c(n2)NCCC3)C1)C(=O)O)c1ccc(F)c(Cl)c1 [Compound 367]
33 | > 7.00 | > 7.00 | O=C(N[C@@H](CNC(=O)[C@@H]1CCCN(CCCc2ccc3c(n2)NCCC3)C1)C(=O)O)c1ccc(Cl)c(Cl)c1 [Compound 368]
34 | > 7.00 | > 7.00 | O=C(N[C@@H](CNC(=O)[C@@H]1CCCN(CCCc2ccc3c(n2)NCCC3)C1)C(=O)O)c1ccc(C2CC2)cc1 [Compound 369]
35 | > 7.00 | > 7.00 | O=C(N[C@@H](CNC(=O)[C@@H]1CCCN(CCCc2ccc3c(n2)NCCC3)C1)C(=O)O)c1ccccc1C1CC1 [Compound 371]
36 | > 7.00 | > 7.00 | O=C(N[C@@H](CNC(=O)[C@@H]1CCCN(CCCc2ccc3c(n2)NCCC3)C1)C(=O)O)c1ccc(Cl)cc1 [Compound 372]
37 | > 7.00 | > 7.00 | O=C(N[C@@H](CNC(=O)[C@@H]1CCCN(CCCc2ccc3c(n2)NCCC3)C1)C(=O)O)c1cccc(Cl)c1 [Compound 373]
38 | > 7.00 | > 7.00 | O=C(NC[C@@H](Nc1ccc(-c2ccccc2)nc1)C(=O)O)[C@@H]1CCCN(CCCc2ccc3c(n2)NCCC3)C1 [Compound 375]
39 | > 7.00 | > 7.00 | O=C(NC[C@@H](Nc1cncc(-c2ccccc2)c1)C(=O)O)[C@@H]1CCCN(CCCc2ccc3c(n2)NCCC3)C1 [Compound 376]
40 | > 7.00 | > 7.00 | O=C(O)CC(NC(=O)[C@@H]1CCCN(CCCc2ccc3c(n2)NCCC3)C1)c1cccc(O)c1 (stereo partly drawn) [Compound 377]
41 | > 7.00 | > 7.00 | C[C@@H]1C[C@H](C(=O)N[C@@H](CC(=O)O)c2ccccc2)CN(CCCc2ccc3c(n2)NCCC3)C1 [Compound 379]
42 | > 7.00 | > 7.00 | O=C(O)[C@@H](CCO[C@@H]1CCCN(Cc2ccc3c(n2)NCCC3)C1)NC(=O)C12CCC(CC1)CC2 [Compound 381]

From US20240208968A1, “ALPHA V BETA 6 AND ALPHA V BETA 1 INTEGRIN INHIBITORS AND USES THEREOF” (DiCE Molecules SV, Inc., priority 2021, published 2024)
